Laboratory results as given in patent US20050014682A1 (priority 2003, published 2005).
Read-outs that look alike come from different tables or passages of the source. Starred links: 1 amine or outer side, 2 acyl side, 3 side chain; linkers in the order of their positions; H or OH if unused. Positions of bridges follow the written chain, without caps; N, C: chain ends. Non-standard residues stand in square brackets, D forms with d. Residues, ends and D or L forms follow the SMILES beside them. Adda = CO[C@@H](Cc1ccccc1)[C@@H](C)/C=C(C)/C=C/[C@H](N[*:1])[C@H](C)C(=O)[*:2]; dAsp(3S-Me) = C[C@H](C(=O)[*:3])[C@@H](N[*:1])C(=O)[*:2]; d(γGlu) = O=C(O)[C@@H](CCC(=O)[*:2])N[*:1]; NMeDha = C=C(NC)C(=O)O

How the values were obtained:
[1] = system: Akt; assay: Cell-free in vitro assay (3T3-L1 adipocyte PM/CYT/LDM fractions), Akt phosphorylation by phospho-Akt immunoblot; format: biochemical; conditions: for ability of phosphatidylinositol lipids to stimulate Thr308 and Ser473 phosphorylation of Akt: data not shown
[2] = system: PDK2; assay: PDK2 activity in in vitro reactions at different chloride concentrations; format: biochemical
[3] = 10 μM PIP3 added to CYT alone, non-insulin treated cells, 15 min at 37° C.
[4] = 10 μM PIP3 added to CYT and LDM, 15 min at 37° C.

Compound: O[C@@H](CS)[C@@H](O)CS [DTT]
- signal for both Akt phosphorylation sites in reactions containing PM(+ins) ([1]; 15 min at 37° C.): appeared to inhibit the phospho-Akt signal in most cases

Compound: C=C1C(=O)N[C@H](C)C(=O)N[C@@H](CC(C)C)C(=O)N[C@@H](C(=O)O)[C@H](C)C(=O)N[C@@H](CCCNC(=N)N)C(=O)N[C@@H](/C=C/C(C)=C/[C@H](C)[C@H](Cc2ccccc2)OC)[C@H](C)C(=O)N[C@@H](C(=O)O)CCC(=O)N1C [Microcystin, microcystin-LR] (R[Adda][d(γGlu)][NMeDha][dA]L[dAsp(3S-Me)]-OH; lactam N-7)
- control (basal) phospho-Akt signal in reactions containing PM(−ins) [1]: elevated the basal signal only for the Ser473 site
- signal for both Akt phosphorylation sites in reactions containing PM(+ins) [1]: increased the insulin-stimulated signal

Compound: Cl [chloride]
- chloride concentration that completely inhibits PDK2 activity [2]: > 100 mM
- PIP3-induced Ser473 phosphorylation [1]: completely inhibited
- insulin-stimulated phosphorylation of both Thr308 and Ser473 ([1]; 145 mM chloride (140 mM KCl/5 mM NaCl or 145 mM NaCl), PM and CYT): almost completely suppressed
- PIP3-stimulated Thr308 phosphorylation ([1]; high chloride (145 mM), 10 μM PIP3, PM(−ins) and CYT): severely inhibited

Compound: phosphatidylinositol(3,4)P2 [PI (3,4)P2]
- ability of phosphatidylinositol lipids to stimulate Thr308 and Ser473 phosphorylation of Akt [1]: could stimulate

Compound: phosphatidylinositol(3,4,5)P3 [PIP3]
- Ser473 phosphorylation of Akt [1, 3]: occurred only marginally
- Thr308 phosphorylation of Akt [1, 3]: efficient phosphorylation
- Ser473 signal [1, 4]: robust
- Thr308 signal relative to reaction containing CYT alone [1, 4]: not further enhanced
- ability of phosphatidylinositol lipids to stimulate Thr308 and Ser473 phosphorylation of Akt [1]: could stimulate
